Reference: patent US4870002A, “Method of prevention of oxidative injury to cells” (priority 1985, dated 1989)
Read-outs that look alike come from different tables or passages of the source.

Experiments:
horseradish peroxidase = target: T1, horseradish peroxidase (Armoracia rusticana, UniProt P00433); experiment: Inhibition of horseradish peroxidase; type: biochemical; conditions: read-out: K1
T1 sequence (P00433 31-338 limits assumed): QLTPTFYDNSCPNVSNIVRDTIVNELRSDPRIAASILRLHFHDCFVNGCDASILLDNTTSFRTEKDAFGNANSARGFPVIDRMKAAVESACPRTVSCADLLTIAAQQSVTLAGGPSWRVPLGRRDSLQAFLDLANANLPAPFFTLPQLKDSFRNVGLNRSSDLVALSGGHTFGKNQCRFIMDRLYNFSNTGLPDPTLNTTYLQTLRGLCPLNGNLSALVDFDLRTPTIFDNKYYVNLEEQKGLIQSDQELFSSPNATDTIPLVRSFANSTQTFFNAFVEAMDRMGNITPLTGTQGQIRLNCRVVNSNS

Novikoff hepatoma [1] = experiment: Enhancement of tumor growth by aminotyrosine after dilute hepatoma cell challenge; type: in vivo, rat; conditions: 1 mg i.p. daily for five days; ninth day following inoculation; four adult male rats; controls no tumor
Protocol: In order to evaluate whether or not endogenous peroxidases play a role in the natural resistance to neoplastic growth, we injected some rats with a potent inhibitor of the cytotoxic activity of peroxidases and subsequently challanged the animals with a suspension of hepatoma cells.
Four adult male rats were injected i.p. with 1 mg of 3-aminotyrosine in 1 ml of water. Four control rats were injected with 1 ml of water. The following day all rats were injected with 1 ml of a dilute Novikoff hepatoma cell suspension; the number of cells being normally insufficient to produce tumor growth. On the same day, an additional 1 mg aminotyrosine was administered to the rats that received the inhibitor the previous day and this was repeated for three more days. The four control rats similarly received water injections.
On the ninth day following the inoculation with tumor, all rats were sacrificed and examined for the presence of tumor. No tumor was present in any of the control animals.

[2] = Autoxidation of 3-amino-L-tyrosine solutions; type: physicochemical; conditions: solutions yellow with age
Text: The binding of 3-amino-L-tyrosine to the cell membrane via its alpha amino group, and the subsequent inhibition of CL by inhibiting the binding of Lu-BSA, is unlikely. […] The subsequent washing removes loosely bound 3-amino-L-tyrosine and the addition of the Lu-BSA at pH 6.9 favors BSA binding by the Schiff base reaction. […] The yellowing of 3-amino-L-tyrosine solutions with age is evidence of the oxidation.

Novikoff hepatoma [3] = experiment: Effect of peroxidase inhibitor on ICCOPS-promoted hepatoma regression; type: in vivo, rat
Protocol: Four of the animals were also injected with 100 μg of 3-aminotyrosine.

[4] = system: Con A-Lu-BSA labeled pig RBCs; experiment: Chemiluminescence of Con A-Lu-BSA labeled pig RBCs with exogenous hydrogen peroxide; type: cell-based
Protocol: The luminol-bovine serum albumin (Lu-BSA) complex was made by mixing 2 mg luminol (5-amino-2, 3-dihydrophthalazine-1,4-dione), 0.2 ml of 2 mg BSA/ml PBS (pH 6.9), and 1.6 ml of PBS, pH 6.9. The preparation was then passed through a 0.22 μm nitrocellulose filter to remove insoluble luminol. Next, 0.2 ml of 2 mg Con A/ml of PBS, pH 6.9, was added to the filtrate. After gentle mixing, 10 μl of 25% glutaraldehyde were added. The solution was incubated in the refrigerator for 1 hour. To stop the conjugation, 100 mg of glycine was added to the solution. The solution was then pressed through a 48 ml column of dextran gel filtration beads equilibrated with PBS, pH 6.9. The gel exclusion size was greater than 5000 for globular molecules. The fractions were collected and tested for luminescent labeling activity.
One ml of supernatant of each 10 ml aliquot of 1:20 diluted RBCs was replaced with 1 ml of Con A-Lu-BSA solution as previously described. The preparation was incubated for 15 min. at 37° C. in a water-jacketedcell culture incubator. The cells were then pelleted in a clinical centrifuge, resuspended in PBS, and washed in the same manner two additional times. The washed cells were maintained at 4° C. until used the same day of preparation.
Following exposure to chemical or physical stressors, 100 μl of the RBC suspension was added to 500 μl of PBS, pH 7.4, containing 0.3% hydrogen peroxide, in a scintillation vial. To activate the sample, 100 μl of 0.1N NaOH were added to the vial in place in an ATP photometer (Integrating ATP Photometer Model 3000, Science Applications, San Diego, California 92121) The photometer was set to a dark count of 1 count/30 second at a sensitivity of 600 at room temperature (approximately 23° C.). All counts followed a 5 second delay period to allow for stabilization of the photomultiplier. The counts are reported as counts/30 sec.
All essays were run at room temperature. The post-collection age of those cells was 11-18 days and the cells were used the day of labeling. […] Pyruvate (1.43 mM), an autoxidizable substrate, doubled the CL of labeled cells.

Nc1cc(C[C@H](N)C(=O)O)ccc1O [3-aminotyrosine, 3-amino-L-tyrosine]
Ki (horseradish peroxidase): 5 µM | presence of tumor, in words (Novikoff hepatoma [1]): had developed tumor growth | autoxidation in solution, in words [2]: readily, autoxidizes | effect on the action of ICCOPS, in words (Novikoff hepatoma [3]; 100 μg injected into ICCOPS-treated hepatoma-bearing rats): inhibited the action of ICCOPS | outcome, in words (Novikoff hepatoma [3]; four rats receiving ICCOPS and 100 μg 3-aminotyrosine): eventually died of the tumor | CL (30 sec) ([4]; 160 μM): 5,430 ± 1,266 counts/30 sec | CL (30 sec) ([4]; 1.44 mM): 844 ± 165 counts/30 sec | activity at 160 µM ([4]; Sus scrofa, Erythrocyte, 160 μM, read-out: Percent control): 18% | activity at 1440 µM ([4]; Sus scrofa, Erythrocyte, 1.44 mM, read-out: Percent control): 3% | activity at 11500 µM ([4]; Sus scrofa, Erythrocyte, pretreatment 11.5 mM, 30 min at room temperature, read-out: Percent control): 74% | inhibition at 160 µM ([4]; Sus scrofa, 160 μM, read-out: inhibition of CL of labeled RBCs): 82% | inhibition at 1440 µM ([4]; Sus scrofa, 1.44 mM, read-out: inhibition of CL of labeled RBCs): 97% | inhibition at 1440 µM ([4]; Sus scrofa, 1.44 mM, read-out: inhibition of the natural CL): 94% | inhibition at 11500 µM ([4]; Sus scrofa, pretreatment of labeled cells with 11.5 mM, 30 min at room temperature, read-out: inhibition of CL): 26% | CL (30 sec) ([4]; pretreatment 11.5 mM, 30 min at room temperature): 22,457 ± 2,128 counts/30 sec
